# PMC4851326, “Pharmacologic Comparison of Clinical Neutral Endopeptidase Inhibitors in a Rat Model of Acute Secretory Diarrhea” (The Journal of Pharmacology and Experimental Therapeutics, 2016)
# Assays:
# Details in all cases: recombinant purified human enzyme; for prodrugs the active form was tested
# NEP = biological target: T1, NEP (Homo sapiens, UniProt P08473); assay: Purified peptidase assay, NEP; assay type: biochemical
# T1 construct: purchased R&D Systems (Minneapolis, MN)
# Experimental: (§1) Purified recombinant human enzymes were purchased from R&D Systems (Minneapolis, MN). […] Each substrate was diluted to 100 μM in the assay buffer recommended for each enzyme by the supplier. […] To these, 5 μl of diluted enzyme was added, followed by 10 μl of the quenched peptide substrate. The plates were incubated at 37°C until at least 10% substrate turnover or 5 μM product had formed. Fluorescence was measured using a Tecan Safire II (Excitation 320 nm/Emission 420 nm). Each plate included a standard curve of reaction product and positive (no enzyme) and negative (dimethyl sulfoxide vehicle) controls. Dose-response data were plotted and inhibition values (IC50) determined by linear regression analysis using GraphPad Prism (GraphPad Software, La Jolla, CA).
# ACE = biological target: T2, ACE (Homo sapiens, UniProt P12821); assay: Purified peptidase assay, ACE; assay type: biochemical
# T2 construct: purchased R&D Systems (Minneapolis, MN)
# T2 sequence (P12821 30-1306): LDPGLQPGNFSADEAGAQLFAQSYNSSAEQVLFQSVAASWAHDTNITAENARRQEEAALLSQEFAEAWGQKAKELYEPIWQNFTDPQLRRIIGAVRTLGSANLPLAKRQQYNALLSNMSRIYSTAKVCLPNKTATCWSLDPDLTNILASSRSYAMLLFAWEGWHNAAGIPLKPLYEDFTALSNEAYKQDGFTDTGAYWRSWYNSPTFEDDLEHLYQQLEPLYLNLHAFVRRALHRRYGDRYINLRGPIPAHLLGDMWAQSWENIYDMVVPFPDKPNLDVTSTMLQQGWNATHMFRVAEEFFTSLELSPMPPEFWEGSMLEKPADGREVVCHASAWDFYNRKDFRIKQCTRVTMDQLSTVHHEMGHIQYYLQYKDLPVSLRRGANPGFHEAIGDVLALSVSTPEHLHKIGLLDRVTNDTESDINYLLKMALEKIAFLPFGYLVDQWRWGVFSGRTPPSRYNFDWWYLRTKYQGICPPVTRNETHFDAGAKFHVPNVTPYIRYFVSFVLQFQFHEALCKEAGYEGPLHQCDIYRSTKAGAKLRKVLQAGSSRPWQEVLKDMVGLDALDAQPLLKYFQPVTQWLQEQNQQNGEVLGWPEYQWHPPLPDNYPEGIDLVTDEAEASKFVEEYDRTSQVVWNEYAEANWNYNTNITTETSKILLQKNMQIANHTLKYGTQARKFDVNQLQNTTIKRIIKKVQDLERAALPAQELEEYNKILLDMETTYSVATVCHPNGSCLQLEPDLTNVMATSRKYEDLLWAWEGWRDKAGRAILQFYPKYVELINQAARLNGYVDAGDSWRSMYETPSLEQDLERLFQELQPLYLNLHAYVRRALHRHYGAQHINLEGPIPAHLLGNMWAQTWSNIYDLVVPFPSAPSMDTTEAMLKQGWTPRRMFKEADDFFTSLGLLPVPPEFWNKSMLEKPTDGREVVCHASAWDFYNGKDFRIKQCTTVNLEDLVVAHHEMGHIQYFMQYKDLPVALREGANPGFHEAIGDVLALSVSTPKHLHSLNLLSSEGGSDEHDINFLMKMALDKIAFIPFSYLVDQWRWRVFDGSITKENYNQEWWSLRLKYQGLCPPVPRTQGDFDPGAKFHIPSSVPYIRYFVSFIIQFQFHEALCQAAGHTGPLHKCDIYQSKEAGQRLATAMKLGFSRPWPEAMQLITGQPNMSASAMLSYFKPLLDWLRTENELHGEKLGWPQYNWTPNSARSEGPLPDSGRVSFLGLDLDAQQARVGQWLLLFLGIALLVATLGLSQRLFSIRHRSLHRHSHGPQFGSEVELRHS
# Experimental: as §1
# ECE-1 = biological target: T3, ECE-1 (Homo sapiens, UniProt P42892); assay: biochemical
# T3 construct: purchased R&D Systems (Minneapolis, MN)
# T3 sequence (P42892 1-770): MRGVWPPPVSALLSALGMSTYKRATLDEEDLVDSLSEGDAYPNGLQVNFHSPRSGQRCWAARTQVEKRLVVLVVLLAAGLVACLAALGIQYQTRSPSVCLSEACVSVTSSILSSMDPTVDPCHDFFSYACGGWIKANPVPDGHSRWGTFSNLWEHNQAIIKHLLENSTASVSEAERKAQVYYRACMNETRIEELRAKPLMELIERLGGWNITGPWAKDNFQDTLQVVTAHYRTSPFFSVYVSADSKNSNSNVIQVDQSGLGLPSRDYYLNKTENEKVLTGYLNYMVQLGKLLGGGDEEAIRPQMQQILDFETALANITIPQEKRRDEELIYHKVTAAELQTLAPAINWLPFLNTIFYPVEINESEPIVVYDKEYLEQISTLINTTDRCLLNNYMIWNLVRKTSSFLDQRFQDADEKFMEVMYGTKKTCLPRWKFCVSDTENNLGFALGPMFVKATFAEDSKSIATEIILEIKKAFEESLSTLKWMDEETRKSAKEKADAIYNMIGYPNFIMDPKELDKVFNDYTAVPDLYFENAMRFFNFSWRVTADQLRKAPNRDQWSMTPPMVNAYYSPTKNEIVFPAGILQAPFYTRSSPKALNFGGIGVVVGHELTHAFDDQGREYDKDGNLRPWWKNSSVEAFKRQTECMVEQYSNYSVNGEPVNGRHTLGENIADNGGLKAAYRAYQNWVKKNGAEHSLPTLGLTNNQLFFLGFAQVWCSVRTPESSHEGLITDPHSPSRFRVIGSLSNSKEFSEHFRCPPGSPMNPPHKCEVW
# Experimental: as §1
# ECE-2 = biological target: T4, ECE-2 (Homo sapiens, UniProt P0DPD6); assay: Purified peptidase assay, ECE-2; assay type: biochemical
# T4 construct: purchased R&D Systems (Minneapolis, MN)
# T4 sequence (P0DPD6 1-811): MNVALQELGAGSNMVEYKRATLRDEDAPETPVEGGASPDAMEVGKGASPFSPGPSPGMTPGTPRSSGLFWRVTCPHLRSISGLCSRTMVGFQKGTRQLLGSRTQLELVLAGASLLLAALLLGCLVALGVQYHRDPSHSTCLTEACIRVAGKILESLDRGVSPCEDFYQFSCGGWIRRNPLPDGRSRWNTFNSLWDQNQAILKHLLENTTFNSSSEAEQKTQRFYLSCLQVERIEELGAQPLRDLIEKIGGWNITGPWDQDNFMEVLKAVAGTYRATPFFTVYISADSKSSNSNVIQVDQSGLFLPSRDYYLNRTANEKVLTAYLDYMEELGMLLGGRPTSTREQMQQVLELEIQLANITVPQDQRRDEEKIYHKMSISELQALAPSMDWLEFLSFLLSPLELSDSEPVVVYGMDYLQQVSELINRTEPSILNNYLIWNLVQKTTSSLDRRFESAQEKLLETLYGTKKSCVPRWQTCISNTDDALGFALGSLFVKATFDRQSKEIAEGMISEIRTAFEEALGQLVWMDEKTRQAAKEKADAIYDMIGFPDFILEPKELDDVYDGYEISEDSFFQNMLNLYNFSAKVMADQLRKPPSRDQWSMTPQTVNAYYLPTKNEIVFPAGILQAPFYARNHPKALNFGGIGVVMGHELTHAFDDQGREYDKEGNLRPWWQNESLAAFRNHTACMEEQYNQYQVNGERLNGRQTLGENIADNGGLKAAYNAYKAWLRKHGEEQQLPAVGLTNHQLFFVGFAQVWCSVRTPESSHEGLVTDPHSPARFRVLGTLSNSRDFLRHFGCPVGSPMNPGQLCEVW
# Experimental: as §1
# IDE = biological target: T5, IDE (Homo sapiens, UniProt P14735); assay: Purified peptidase assay, IDE; assay type: biochemical
# T5 construct: purchased R&D Systems (Minneapolis, MN)
# T5 sequence (P14735 1-1019): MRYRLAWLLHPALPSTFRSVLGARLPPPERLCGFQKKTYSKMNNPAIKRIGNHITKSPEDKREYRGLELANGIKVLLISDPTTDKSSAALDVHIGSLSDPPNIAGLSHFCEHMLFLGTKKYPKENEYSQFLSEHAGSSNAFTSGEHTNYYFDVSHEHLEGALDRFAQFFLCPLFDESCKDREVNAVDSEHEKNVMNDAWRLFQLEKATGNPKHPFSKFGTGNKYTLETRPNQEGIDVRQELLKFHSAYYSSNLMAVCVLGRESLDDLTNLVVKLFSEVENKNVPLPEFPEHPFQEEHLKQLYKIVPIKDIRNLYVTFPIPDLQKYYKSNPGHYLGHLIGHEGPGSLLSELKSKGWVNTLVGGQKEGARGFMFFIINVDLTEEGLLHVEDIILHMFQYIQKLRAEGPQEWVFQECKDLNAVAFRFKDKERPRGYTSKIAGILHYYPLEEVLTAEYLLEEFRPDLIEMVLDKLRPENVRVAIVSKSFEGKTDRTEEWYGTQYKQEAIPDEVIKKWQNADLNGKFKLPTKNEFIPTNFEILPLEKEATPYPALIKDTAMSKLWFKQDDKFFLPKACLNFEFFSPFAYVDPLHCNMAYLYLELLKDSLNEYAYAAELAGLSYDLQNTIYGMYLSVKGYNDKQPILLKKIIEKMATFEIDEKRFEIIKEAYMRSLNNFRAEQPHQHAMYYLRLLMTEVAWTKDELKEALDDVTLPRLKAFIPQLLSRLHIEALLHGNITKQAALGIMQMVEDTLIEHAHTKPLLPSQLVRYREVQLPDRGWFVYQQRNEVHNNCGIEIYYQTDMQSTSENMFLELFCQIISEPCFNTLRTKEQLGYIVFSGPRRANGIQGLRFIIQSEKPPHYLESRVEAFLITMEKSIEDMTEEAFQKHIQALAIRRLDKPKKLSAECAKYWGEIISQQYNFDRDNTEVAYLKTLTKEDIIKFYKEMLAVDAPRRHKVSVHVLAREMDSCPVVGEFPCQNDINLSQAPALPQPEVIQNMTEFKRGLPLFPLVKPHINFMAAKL
# Experimental: as §1
# aminopeptidase N = biological target: T6, aminopeptidase N (Homo sapiens, UniProt P15144); assay: Purified peptidase assay, APN; assay type: biochemical
# T6 construct: purchased R&D Systems (Minneapolis, MN)
# T6 sequence (P15144 whole entry): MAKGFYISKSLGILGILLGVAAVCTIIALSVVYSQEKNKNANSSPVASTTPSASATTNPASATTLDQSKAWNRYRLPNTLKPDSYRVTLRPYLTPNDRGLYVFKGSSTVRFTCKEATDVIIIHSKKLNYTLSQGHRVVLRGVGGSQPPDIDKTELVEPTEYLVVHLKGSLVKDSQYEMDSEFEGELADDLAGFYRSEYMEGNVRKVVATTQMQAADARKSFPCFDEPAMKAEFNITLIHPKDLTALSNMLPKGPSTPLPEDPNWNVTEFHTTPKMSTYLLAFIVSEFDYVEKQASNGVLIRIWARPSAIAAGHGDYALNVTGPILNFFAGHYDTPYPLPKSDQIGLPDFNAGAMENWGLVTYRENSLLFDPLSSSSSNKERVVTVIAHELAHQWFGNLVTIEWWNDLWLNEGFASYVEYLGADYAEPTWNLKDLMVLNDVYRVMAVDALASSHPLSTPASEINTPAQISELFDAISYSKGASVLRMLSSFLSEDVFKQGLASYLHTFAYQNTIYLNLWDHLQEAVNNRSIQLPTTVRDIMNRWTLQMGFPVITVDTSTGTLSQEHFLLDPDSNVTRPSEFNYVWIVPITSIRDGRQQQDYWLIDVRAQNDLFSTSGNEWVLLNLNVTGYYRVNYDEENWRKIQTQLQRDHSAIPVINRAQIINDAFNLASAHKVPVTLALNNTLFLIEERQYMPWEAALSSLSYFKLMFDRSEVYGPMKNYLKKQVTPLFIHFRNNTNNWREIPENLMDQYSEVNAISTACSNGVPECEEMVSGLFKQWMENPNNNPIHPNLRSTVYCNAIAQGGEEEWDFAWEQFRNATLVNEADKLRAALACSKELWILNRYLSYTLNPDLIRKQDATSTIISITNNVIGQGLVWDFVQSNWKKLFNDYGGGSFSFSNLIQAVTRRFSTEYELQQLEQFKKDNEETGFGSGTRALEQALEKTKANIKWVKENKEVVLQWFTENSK
# Experimental: as §1
# [1] = biological target: T7, puromycin-sensitive aminopeptidase (Homo sapiens, UniProt P55786); assay: Purified peptidase assay, PSA; assay type: biochemical
# T7 construct: purchased R&D Systems (Minneapolis, MN)
# T7 sequence (P55786 whole entry): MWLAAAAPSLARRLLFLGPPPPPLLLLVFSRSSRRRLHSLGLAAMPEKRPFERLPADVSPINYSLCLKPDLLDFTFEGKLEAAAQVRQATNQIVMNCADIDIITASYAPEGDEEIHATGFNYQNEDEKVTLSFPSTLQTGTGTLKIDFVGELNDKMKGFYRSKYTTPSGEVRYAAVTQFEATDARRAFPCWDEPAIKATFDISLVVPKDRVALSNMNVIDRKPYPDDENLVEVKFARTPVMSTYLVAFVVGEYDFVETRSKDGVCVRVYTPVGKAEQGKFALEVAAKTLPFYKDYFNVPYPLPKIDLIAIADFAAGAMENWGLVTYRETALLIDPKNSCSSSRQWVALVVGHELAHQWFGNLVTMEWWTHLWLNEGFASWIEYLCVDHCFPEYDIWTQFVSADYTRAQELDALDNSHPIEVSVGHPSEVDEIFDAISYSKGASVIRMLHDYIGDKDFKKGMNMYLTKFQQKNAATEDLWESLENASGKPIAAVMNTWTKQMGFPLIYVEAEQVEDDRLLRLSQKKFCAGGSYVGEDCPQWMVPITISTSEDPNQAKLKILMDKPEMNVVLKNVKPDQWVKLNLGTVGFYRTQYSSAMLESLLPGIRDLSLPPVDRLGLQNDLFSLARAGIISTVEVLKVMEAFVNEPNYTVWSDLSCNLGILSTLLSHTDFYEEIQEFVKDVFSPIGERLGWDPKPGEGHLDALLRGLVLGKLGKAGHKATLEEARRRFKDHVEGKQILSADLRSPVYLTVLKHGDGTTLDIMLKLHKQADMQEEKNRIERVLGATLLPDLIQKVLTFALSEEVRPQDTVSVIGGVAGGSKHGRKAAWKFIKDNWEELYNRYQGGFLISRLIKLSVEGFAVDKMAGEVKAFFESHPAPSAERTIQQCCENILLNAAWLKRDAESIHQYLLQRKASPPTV
# Experimental: as §1
# T1 sequence (P08473 whole entry): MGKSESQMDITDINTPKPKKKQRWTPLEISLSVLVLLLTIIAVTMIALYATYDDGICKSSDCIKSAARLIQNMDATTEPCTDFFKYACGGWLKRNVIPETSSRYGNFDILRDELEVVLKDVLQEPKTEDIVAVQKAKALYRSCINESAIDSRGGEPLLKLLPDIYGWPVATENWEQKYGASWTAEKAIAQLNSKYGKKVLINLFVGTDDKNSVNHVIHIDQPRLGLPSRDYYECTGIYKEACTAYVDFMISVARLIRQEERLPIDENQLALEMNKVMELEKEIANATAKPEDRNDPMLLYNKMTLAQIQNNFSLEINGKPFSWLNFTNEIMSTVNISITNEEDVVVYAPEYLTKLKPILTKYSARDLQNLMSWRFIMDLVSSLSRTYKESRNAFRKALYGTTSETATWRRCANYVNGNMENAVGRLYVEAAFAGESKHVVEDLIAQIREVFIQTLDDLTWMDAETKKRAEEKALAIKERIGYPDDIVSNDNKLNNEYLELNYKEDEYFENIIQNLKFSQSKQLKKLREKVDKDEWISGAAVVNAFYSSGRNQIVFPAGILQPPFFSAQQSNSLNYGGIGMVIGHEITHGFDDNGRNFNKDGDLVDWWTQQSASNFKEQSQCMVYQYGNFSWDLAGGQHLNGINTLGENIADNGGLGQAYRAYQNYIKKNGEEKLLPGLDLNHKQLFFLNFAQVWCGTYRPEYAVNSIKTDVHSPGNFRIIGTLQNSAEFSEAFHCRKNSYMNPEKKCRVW
Compound,IC50 (NEP),IC50 (ACE),IC50 (ECE-1),IC50 (ECE-2),IC50 (IDE),IC50 (aminopeptidase N),IC50 [1]
CC1(C)CCC[C@H](NC(=O)[C@@H](S)Cc2ccccc2)C(=O)N1CC(=O)O [Gemopatrilat],0.06 µM,0.23 µM,12 µM,77 µM,> 100 µM,18 µM,18 µM
O=C(N[C@H]1CCS[C@H]2CCC[C@@H](C(=O)O)N2C1=O)[C@@H](S)Cc1ccccc1 [Omapatrilat],0.04 µM,0.19 µM,21 µM,86 µM,> 100 µM,28 µM,> 100 µM
